Source: patent US12241888B2, “Platform for assessment of the transcytosis of extracellular vesicles across endothelial barriers and uses thereof” (Children's Medical Center Corporation, priority 2018, dated 2025)

Tested on: brain EC monolayer
Test: Transcytosis assay with chemical-inhibition of endocytosis
Format: cell-based, Human
Settings: endothelial cells pretreated with increasing doses of endocytosis inhibitor
Protocol: The model was optimized for this novel application. […] The cells become confluent in 48-72 hours. […] A-2) Transcytosis assay with chemical-inhibition of endocytosis: Transcytosis occurs following the uptake of macromolecules or EVs via endocytosis. […] A variety of chemicals that target different steps of endocytosis (e.g. Dynasore, filipin, etc.) can be used to pretreat the endothelial cells in the transwell® model to inhibit endocytosis prior to the transcytosis assay. […] It is worth to note that the endocytosis of EVs depends on the interaction of EV surface proteins with endothelial cell receptors, which depending on the EV proteins involved can go through different routes of endocytosis (clathrin-dependent, clathrin-independent, etc.).

SMILES: O=C(N/N=C/c1ccc(O)c(O)c1)c1cc2ccccc2cc1O [Dynasore]
- fluorescence intensity in the lower chamber (EV transcytosis signal): decreased with increasing doses
